# Experimental data published in PubChem BioAssay AID328 (DTP/NCI, 2004).
# “And” between values parts separate entries of the source, which are not always exact repeats. Equal values may be shown once. Inconclusive results and toxic doses are left out.
# System: BDF1 mice, P388 leukemia ip, median survival T/C
# Experiment: NCI In Vivo Anticancer Drug Screen. Data for tumor model P388 Leukemia (intraperitoneal) in B6D2F1 (BDF1) mice
# Settings: endpoint: median survival time, higher = longer survival
# Procedure, shortened: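 Each value expresses how treatment altered survival: treated-mouse outcome over vehicle-mouse outcome, both groups bearing the transplanted tumour.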
# [1] = dose: 50.0 mg/kg/injection, schedule: Q01DX009 (ip), vehicle: saline
# [2] = dose: 100.0 mg/kg/injection, schedule: Q01DX009 (ip), vehicle: saline
# [3] = dose: 200.0 mg/kg/injection, schedule: Q01DX009 (ip), vehicle: Klucel (hydroxypropylcellulose) (HPC)
# [4] = dose: 100.0 mg/kg/injection, schedule: Q01DX009 (ip), vehicle: saline with Tween-80
# [5] = dose: 200.0 mg/kg/injection, schedule: Q01DX009 (ip), vehicle: saline with Tween-80
# [6] = dose: 200.0 mg/kg/injection, schedule: Q04DX003 (ip), vehicle: Klucel (hydroxypropylcellulose) (HPC)
# [7] = dose: 100.0 mg/kg/injection, schedule: Q04DX003 (ip), vehicle: Klucel (hydroxypropylcellulose) (HPC)
# [8] = dose: 50.0 mg/kg/injection, schedule: Q01DX009 (ip), vehicle: saline with Tween-80
structure (smiles),measurement,setting,value
Nc1ccc(/C=C2\C=Cc3ccccc32)cc1,T/C,"dose: 17.75 mg/kg/injection, schedule: Q04DX003 (ip), vehicle: saline sonified",100 % of control
same,T/C,"dose: 18.75 mg/kg/injection, schedule: Q01DX009 (ip), vehicle: saline with Tween-80",90 % of control
same,T/C,"dose: 37.5 mg/kg/injection, schedule: Q01DX009 (ip), vehicle: saline with Tween-80",100 % of control
same,T/C,"dose: 37.5 mg/kg/injection, schedule: Q04DX003 (ip), vehicle: saline sonified",100 % of control
same,T/C,"dose: 75.0 mg/kg/injection, schedule: Q04DX003 (ip), vehicle: saline sonified",95 % of control
CN(c1ccccc1)c1ccc([N+](=O)[O-])c2no[n+]([O-])c12,T/C,"dose: 15.0 mg/kg/injection, schedule: Q01DX009 (ip), vehicle: saline with Tween-80",106 % of control
same,T/C,"dose: 30.0 mg/kg/injection, schedule: Q01DX009 (ip), vehicle: saline with Tween-80",118 % of control
NC12CC3CC(CC(C3)C1)C2,T/C,"dose: 25.0 mg/kg/injection, schedule: Q01DX010 (ip), vehicle: saline",100 % of control
same,T/C,"dose: 50.0 mg/kg/injection, schedule: Q01DX010 (ip), vehicle: saline",100 % of control
same,T/C,"dose: 100.0 mg/kg/injection, schedule: Q01DX010 (ip), vehicle: saline",100 % of control
NCC(O)CSc1ccccc1 (centres undefined),T/C,"dose: 25.0 mg/kg/injection, schedule: Q01DX009 (ip), vehicle: saline",95 % of control
same,T/C,[1],100 % of control
same,T/C,[2],106 % of control
CC1(C)O[C@]2(C)CC[C@@H]1[C@@H](O)[C@@H]2N1CCOCC1,T/C,"dose: 50.0 mg/kg/injection, schedule: Q01DX005 (ip), vehicle: saline",108 % of control
same,T/C,"dose: 100.0 mg/kg/injection, schedule: Q01DX005 (ip), vehicle: saline",106 % of control
same,T/C,"dose: 200.0 mg/kg/injection, schedule: Q01DX005 (ip), vehicle: saline",104 % of control
O=[N+]([O-])c1ccc(S(=O)(=O)c2ccccc2)c2c1no[n+]2[O-],T/C,"dose: 10.0 mg/kg/injection, schedule: Q01DX009 (ip), vehicle: saline with Tween-80",109 % of control
same,T/C,"dose: 20.0 mg/kg/injection, schedule: Q01DX009 (ip), vehicle: saline with Tween-80",106 % of control
same,T/C,"dose: 40.0 mg/kg/injection, schedule: Q01DX009 (ip), vehicle: saline with Tween-80",106 % of control
O=C(O)/C=C\C(=O)Nc1ccccc1,T/C,"dose: 6.25 mg/kg/injection, schedule: Q01DX009 (ip), vehicle: Klucel (hydroxypropylcellulose) (HPC)",105 % of control
same,T/C,"dose: 12.5 mg/kg/injection, schedule: Q01DX009 (ip), vehicle: Klucel (hydroxypropylcellulose) (HPC)",94 % of control
same,T/C,"dose: 25.0 mg/kg/injection, schedule: Q01DX009 (ip), vehicle: Klucel (hydroxypropylcellulose) (HPC)",94 % of control
same,T/C,"dose: 50.0 mg/kg/injection, schedule: Q01DX009 (ip), vehicle: Klucel (hydroxypropylcellulose) (HPC)",115 % of control
same,T/C,[3],86 % of control
same,T/C,"dose: 400.0 mg/kg/injection, schedule: Q01DX009 (ip), vehicle: Klucel (hydroxypropylcellulose) (HPC)",95 % of control
Br/C(C=Nc1ccccc1)=C\Nc1ccccc1,T/C,[4],100 % of control
same,T/C,[5],110 % of control
COc1cc(NC(=O)CN(CCCl)CCCl)cc(OC)c1OC,T/C,"dose: 7.7 mg/kg/injection, schedule: Q04DX003 (ip), vehicle: Klucel (hydroxypropylcellulose) (HPC)",107 % of control
same,T/C,"dose: 30.0 mg/kg/injection, schedule: Q04DX003 (ip), vehicle: Klucel (hydroxypropylcellulose) (HPC)",122 % of control
same,T/C,"dose: 60.0 mg/kg/injection, schedule: Q04DX003 (ip), vehicle: Klucel (hydroxypropylcellulose) (HPC)",104 % of control and 114 % of control
same,T/C,"dose: 90.0 mg/kg/injection, schedule: Q04DX003 (ip), vehicle: Klucel (hydroxypropylcellulose) (HPC)",177 % of control
same,T/C,[6],209 % of control
same,T/C,"dose: 300.0 mg/kg/injection, schedule: Q04DX003 (ip), vehicle: Klucel (hydroxypropylcellulose) (HPC)",122 % of control
CC(C)Cc1c(N)nc(=S)[nH]c1C(=O)O,T/C,"dose: 50.0 mg/kg/injection, schedule: Q04DX003 (ip), vehicle: Klucel (hydroxypropylcellulose) (HPC)",89 % of control
same,T/C,[7],107 % of control
same,T/C,[6],96 % of control
CCC(O)Cc1c[nH]c(=O)[nH]c1=O (centres undefined),T/C,[1],90 % of control
same,T/C,"dose: 50.0 mg/kg/injection, schedule: Q04DX003 (ip), vehicle: saline",104 % of control
same,T/C,[2],105 % of control
same,T/C,"dose: 100.0 mg/kg/injection, schedule: Q04DX003 (ip), vehicle: saline",102 % of control
same,T/C,"dose: 200.0 mg/kg/injection, schedule: Q01DX009 (ip), vehicle: saline",112 % of control
same,T/C,"dose: 200.0 mg/kg/injection, schedule: Q04DX003 (ip), vehicle: saline",109 % of control
CCCCCCCCCCCCCCCCOc1ccc(Cl)cc1,T/C,"dose: 25.0 mg/kg/injection, schedule: Q01DX001 (ip), vehicle: saline sonified",109 % of control
same,T/C,"dose: 50.0 mg/kg/injection, schedule: Q01DX001 (ip), vehicle: saline sonified",100 % of control
COc1ccc(CC2c3cc(OC)c(OC)cc3CCN2C(=O)c2ccccc2)cc1OC (centres undefined),T/C,"dose: 50.0 mg/kg/injection, schedule: Q01DX005 (ip), vehicle: saline with Tween-80",91 % of control
same,T/C,"dose: 100.0 mg/kg/injection, schedule: Q01DX005 (ip), vehicle: saline with Tween-80",91 % of control
Clc1ccc(N=Cc2ccccc2)cc1,T/C,"dose: 100.0 mg/kg/injection, schedule: Q01DX009 (ip), vehicle: Klucel (hydroxypropylcellulose) (HPC)",90 % of control
same,T/C,[7],108 % of control
same,T/C,[3],90 % of control
same,T/C,[6],95 % of control
same,T/C,"dose: 400.0 mg/kg/injection, schedule: Q04DX003 (ip), vehicle: Klucel (hydroxypropylcellulose) (HPC)",100 % of control
COc1ccc2c(Cl)cc(NC(=O)Nc3c(C)cccc3C)nc2c1,T/C,[4],88 % of control
O=P(N1CC1)(N1CC1)N1CC2CCC(CC2)C1,T/C,"dose: 25.0 mg/kg/injection, schedule: Q04DX003 (ip), vehicle: saline",163 % of control
same,T/C,"dose: 37.5 mg/kg/injection, schedule: Q04DX003 (ip), vehicle: saline",236 % of control
CN1C(=O)C(C)(C)C(=O)C1(C)C,T/C,"dose: 12.5 mg/kg/injection, schedule: Q01DX001 (ip), vehicle: saline",100 % of control
same,T/C,"dose: 25.0 mg/kg/injection, schedule: Q01DX001 (ip), vehicle: saline",100 % of control
same,T/C,"dose: 50.0 mg/kg/injection, schedule: Q01DX001 (ip), vehicle: saline",100 % of control
O=C(Cn1cc(F)c(=O)[nH]c1=O)c1ccc(Cl)s1,T/C,[8],105 % of control
same,T/C,[4],96 % of control
same,T/C,"dose: 100.0 mg/kg/injection, schedule: Q04DX003 (ip), vehicle: saline with Tween-80",94 % of control
same,T/C,[5],103 % of control
same,T/C,"dose: 200.0 mg/kg/injection, schedule: Q04DX003 (ip), vehicle: saline with Tween-80",101 % of control
same,T/C,"dose: 400.0 mg/kg/injection, schedule: Q01DX009 (ip), vehicle: saline with Tween-80",103 % of control
same,T/C,"dose: 400.0 mg/kg/injection, schedule: Q04DX003 (ip), vehicle: saline with Tween-80",102 % of control
COc1cc(OC)c(/C=C/c2ccncn2)c(OC)c1,T/C,[8],101 % of control
same,T/C,[4],108 % of control
same,T/C,[5],117 % of control
COC(=O)C(N)CSCSCc1ccccc1 (centres undefined),T/C,"dose: 6.25 mg/kg/injection, schedule: Q04DX003 (ip), vehicle: water",109 % of control
same,T/C,"dose: 12.5 mg/kg/injection, schedule: Q04DX003 (ip), vehicle: water",113 % of control
same,T/C,"dose: 25.0 mg/kg/injection, schedule: Q04DX003 (ip), vehicle: water",104 % of control
same,T/C,"dose: 50.0 mg/kg/injection, schedule: Q04DX003 (ip), vehicle: water",100 % of control
same,T/C,"dose: 100.0 mg/kg/injection, schedule: Q04DX003 (ip), vehicle: water",100 % of control
CCCCCC(CN(C)C)C(=O)/C=C\c1ccc(Cl)cc1Cl (centres undefined),T/C,"dose: 8.0 mg/kg/injection, schedule: Q01DX009 (ip), vehicle: saline",122 % of control
same,T/C,"dose: 12.0 mg/kg/injection, schedule: Q01DX009 (ip), vehicle: saline",122 % of control
same,T/C,"dose: 18.0 mg/kg/injection, schedule: Q01DX009 (ip), vehicle: saline",122 % of control
N=C(N)c1ccc(OCCCOc2ccc(C(=N)N)cc2Br)c(Br)c1,T/C,"dose: 2.2 mg/kg/injection, schedule: Q01DX009 (ip), vehicle: saline",100 % of control
same,T/C,"dose: 3.3 mg/kg/injection, schedule: Q01DX009 (ip), vehicle: saline",118 % of control
same,T/C,"dose: 5.0 mg/kg/injection, schedule: Q01DX009 (ip), vehicle: saline",118 % of control
same,T/C,"dose: 25.0 mg/kg/injection, schedule: Q01DX009 (ip), vehicle: saline sonified",122 % of control
